Reference: patent US6420367B1, “Pyrimidine derivatives exhibiting antitumor activity” (Shionogo & Co., Ltd., priority 1998, dated 2002)
In brackets after ≈: the same amount, converted by molar mass.

Tests used:
[1] = system: DT-R cells (pRRE3-luc-transfected v-ki-ras-transformed NIH3T3 cells); signal derived from Ras oncogene products; assay: Inhibitory effect against cellular signaling derived from Ras oncogene products: luciferase reporter, dissociation of DT-R from DT-C activity (MAC); assay type: cell-based, mouse; details: minimal tested concentration at which luciferase activities of DT-C cells and DT-R cells dissociated
From the text: Test Example 1 Inhibitory Effect Against Cellular Signaling Derived From Ras Oncogene Products
1) Establishment of Cell Lines Used in Assay
Based on the reporter plasmid (pGV-P (Toyo Ink, Japan)), in which luciferase gene was ligated to SV40-derived minimal promoter, we constructed a plasmid designated pRRE3-luc by inserting 3 copies of chemically synthesized oligonucleotides (Sequence: CAGGATATGACTCT, derived from mouse NVL-3 (M. A. Reddy et al.(1992)Mol. Endocrinol., 6, 1051)) into upstream of the promoter. v-ki-ras-transformed NIH3T3 cells (DT cells, provided by Dr. Makoto Noda (Kyoto Univ., School of medicine)) were transfected with this plasmid by liposome-mediated transfection and transfected cell lines stably incorporated and maintained each plasmid were obtained. We named pGV-P and pRRE3-transfected cell line as DT-C and DT-R, respectively and used in the assay described below.
2) Preparation of Samples
i) All the cell lines were cultured in Dulbecco's Modified Essential Medium (DMEM: 10% Fetal Calf Serum(FCS: Hyclone, USA)) including […] kanamycin (Meiji Seika, Japan) in humidified incubator under condition of 5% CO2 at 37° C.
ii) DT-C and DT-R cells were seeded at 2500 cells/well into flat-bottom 96 well multiplate (Sumitomo bakelite) and incubated for 24 hours.
iii) Test compounds were prepared as 1 mg/ml DMSO solution.
iv) The solution of test compounds were added to the culture. Tested compounds are used at the concentration from […] to 0.51 ng/ml with by 3-fold dilution.
v) After 24 hours, the culture supernatant was completely aspirated and […] of cell-lysing solution (PGC-50 (Toyo Ink, Japan)) was added before cells were dried up. In order to the cells were lysed completely, multiwell plates were left at room temperature for 10 to 30 min. The plates were wrapped up and stored at −20° C. till the day of measurement.
3) Measurement of Samples
i) Melt the samples by putting 96 well multiplate at 37° C. and add 90 μl/well 25 mM Tris (pH 7.5).
ii) Transfer 50 μl of the sample (110 μl) to the 96 well microplate for measurement (Microlite 1 (Dynatech)).
iii) Measure the samples by the luminometer, LUMINOUS CT9000D (Dia-Yatron, Japan). We used Pickagene luminescence kit PGL2000 or LT2.0 (Toyo Ink, Japan) as substrates for luminescence measurement (50 μl/well).
4) Judgment of the Results
i) The luciferase activity of DT-C cells and DT-R cells were plotted in the graph where the relative activity and the compound concentration were expressed as Y-axis and X-axis, respectively. We judged by the degree of dissociation between the activities of DT-C cells and DT-R cells as an index.
ii) Concretely, efficacy of the compound was expressed by two values described below.
a) Among the points of concentration tested, the minimal concentration (Minimal Active Concentration: MAC), at which the activities of DT-C cells and DT-R cells dissociated, was shown as an index of efficacy of the compound.

[2] = system: human lung adenocarcinoma A549; assay: In vitro cell growth inhibition test, MTT assay; assay type: cell-based; details: MTT assay 4 days after compound addition
From the text: (§1) Test Example 2 In Vitro Cell Growth Inhibition Test Cells and MTT Assay
(§2) Human squamous lung cancer […], human squamous lung cancer Ma44, human lung adenocarcinoma A549, human colon cancer HT29 and human pancreas cancer PANC-1 were used.

[3] = system: human squamous lung cancer Ma44; assay: In vitro cell growth inhibition test, MTT assay; assay type: cell-based; details: MTT assay 4 days after compound addition
From the text: as §1, §2

human colon cancer HT29 = assay: In vitro cell growth inhibition test, MTT assay; assay type: cell-based; details: MTT assay 4 days after compound addition
From the text: as §1, §2

[4] = system: human squamous lung cancer RERF-RC-AI; assay: In vitro cell growth inhibition test, MTT assay; assay type: cell-based; details: MTT assay 4 days after compound addition
From the text: as §1, §2

[5] = system: human pancreas cancer PANC-1; assay: In vitro cell growth inhibition test, MTT assay; assay type: cell-based; details: MTT assay 4 days after compound addition
From the text: as §1, §2

Row | Compound | IC50, A549 [2] [µg/mL] | IC50, Ma44 [3] [µg/mL] | IC50, HT29 (human colon cancer HT29) [µg/mL] | IC50, RERF-LC-AI [4] [µg/mL] | IC50, PANC-1 [5] [µg/mL] | MAC (Minimal Active Concentration) [1] [µg/mL]
1 | CCNC(=Nc1ncncc1CSc1nnc(-c2ccc([N+](=O)[O-])cc2)o1)NCC [Compound A-172] | 0.0075 (≈ 0.0175 µM) | 0.0038 (≈ 0.00887 µM) | 0.0033 (≈ 0.0077 µM) | 0.0015 (≈ 0.0035 µM) | 0.0031 (≈ 0.00723 µM) | 0.0137
2 | CCNC(=Nc1ncncc1CSc1nnc(-c2ccc(F)cc2N)o1)NCC [Compound A-65] | 0.0028 (≈ 0.00672 µM) | 0.09 (≈ 0.216 µM) | 0.0014 (≈ 0.00336 µM) | 0.0014 (≈ 0.00336 µM) | 0.0021 (≈ 0.00504 µM) | <0.000508
3 | CNC(=Nc1ncncc1CSc1nnc(-c2ccc([N+](=O)[O-])cc2)o1)NC [Compound A-173] | 0.017 (≈ 0.0425 µM) | 0.0072 (≈ 0.018 µM) | 0.006 (≈ 0.015 µM) | 0.0037 (≈ 0.00924 µM) | 0.0072 (≈ 0.018 µM) | 0.123
4 | CCNC(=Nc1ncncc1CSc1nnc(-c2ccc([N+](=O)[O-])cc2)o1)NCCN [Compound A-122] | 2.1 (≈ 4.74 µM) | 0.3 (≈ 0.676 µM) | 0.089 (≈ 0.201 µM) | 0.14 (≈ 0.316 µM) | 0.21 (≈ 0.474 µM) | 1.11
5 | CCNC(=Nc1nc(C)ncc1CSc1nnc(-c2ccc(N)cc2OC)o1)NCC.Cl [Compound A-189] | 0.051 | 0.085 | 0.032 | 0.016 | 0.021 | 0.0412

Second part, led by results:

Row | IC50, A549 [2] [µg/mL] | IC50, Ma44 [3] [µg/mL] | IC50, HT29 (human colon cancer HT29) [µg/mL] | IC50, RERF-LC-AI [4] [µg/mL] | IC50, PANC-1 [5] [µg/mL] | Compound | MAC (Minimal Active Concentration) [1] [µg/mL]
6 | 0.014 (≈ 0.0339 µM) | 0.024 (≈ 0.0582 µM) | 0.0067 (≈ 0.0162 µM) | 0.0036 (≈ 0.00873 µM) | 0.005 (≈ 0.0121 µM) | CCCNC(=Nc1ncncc1CSc1nnc(-c2ccc(N)cc2)o1)NCC [Compound A-178] | 0.0412
7 | 0.031 (≈ 0.0701 µM) | 0.014 (≈ 0.0316 µM) | 0.006 (≈ 0.0136 µM) | 0.008 (≈ 0.0181 µM) | 0.014 (≈ 0.0316 µM) | CCNC(=Nc1nc(C)ncc1CSc1nnc(-c2ccc([N+](=O)[O-])cc2)o1)NCC [Compound A-82] | <0.000508
8 | 0.01 (≈ 0.026 µM) | 0.016 (≈ 0.0416 µM) | 0.0077 (≈ 0.02 µM) | 0.0027 (≈ 0.00702 µM) | 0.0032 (≈ 0.00832 µM) | CCNC(N)=Nc1nc(C)ncc1CSc1nnc(-c2ccc(N)cc2)o1 [Compound A-184] | 0.0412
9 | 0.07 (≈ 0.164 µM) | 0.16 (≈ 0.375 µM) | 0.02 (≈ 0.0469 µM) | 0.013 (≈ 0.0305 µM) | 0.024 (≈ 0.0563 µM) | CCCNC(=Nc1nc(CC)ncc1CSc1nnc(-c2ccc(N)cc2)o1)NC [Compound A-151] | 0.37
10 | 0.005 (≈ 0.011 µM) | 0.14 (≈ 0.307 µM) | 0.031 (≈ 0.0679 µM) | 0.016 (≈ 0.035 µM) | 0.037 (≈ 0.081 µM) | CCCNC(=Nc1nc(CC)ncc1CSc1nnc(-c2ccc([N+](=O)[O-])cc2)o1)NC [Compound A-150] | 0.123
11 | 0.034 (≈ 0.0761 µM) | 0.086 (≈ 0.192 µM) | 0.015 (≈ 0.0336 µM) | 0.013 (≈ 0.0291 µM) | 0.03 (≈ 0.0671 µM) | CCNC(=Nc1nc(C)ncc1CSc1nnc(-c2ccc(N)cc2Cl)o1)NCC [Compound A-64] | 0.370
12 | 0.014 (≈ 0.0318 µM) | 0.016 (≈ 0.0363 µM) | 0.012 (≈ 0.0272 µM) | 0.008 (≈ 0.0182 µM) | 0.0081 (≈ 0.0184 µM) | CCCCNC(=Nc1nc(C)ncc1CSc1nnc(-c2ccc(N)cc2)o1)NCC [Compound A-180] | 0.00457
